Experiment: xn = mol fraction of the nth substance listed
Settings: Liquid, Pycnometric method

CCCCBr [1-bromobutane] + O=C=O
Settings | mass density [kg/m3]
308.2 K, 6320 kPa, x1 = 0.1495 | 1011
308.2 K, 6620 kPa, x1 = 0.0989 | 890
308.2 K, 6840 kPa, x1 = 0.0989 | 897
308.2 K, 6850 kPa, x1 = 0.0683 | 834
308.2 K, 6930 kPa, x1 = 0.0683 | 836
308.2 K, 6980 kPa, x1 = 0.0683 | 838
308.2 K, 7040 kPa, x1 = 0.0989 | 903
308.2 K, 7050 kPa, x1 = 0.0683 | 842
308.2 K, 7090 kPa, x1 = 0.0461 | 805
308.2 K, 7090 kPa, x1 = 0.0683 | 845
308.2 K, 7160 kPa, x1 = 0.0683 | 848
308.2 K, 7230 kPa, x1 = 0.0461 | 811
308.2 K, 7240 kPa, x1 = 0.0683 | 850
308.2 K, 7350 kPa, x1 = 0.0683 | 854
308.2 K, 7350 kPa, x1 = 0.0989 | 910
308.2 K, 7380 kPa, x1 = 0.0245 | 712
308.2 K, 7390 kPa, x1 = 0.0461 | 817
308.2 K, 7400 kPa, x1 = 0.0245 | 711
308.2 K, 7400 kPa, x1 = 0.1495 | 1018
308.2 K, 7420 kPa, x1 = 0.0245 | 713
308.2 K, 7440 kPa, x1 = 0.0245 | 716
308.2 K, 7450 kPa, x1 = 0.0683 | 858
308.2 K, 7480 kPa, x1 = 0.0245 | 720
308.2 K, 7520 kPa, x1 = 0.0245 | 724
308.2 K, 7540 kPa, x1 = 0.0683 | 861
308.2 K, 7550 kPa, x1 = 0.0461 | 823
308.2 K, 7590 kPa, x1 = 0.0245 | 729
308.2 K, 7640 kPa, x1 = 0.0245 | 734
308.2 K, 7660 kPa, x1 = 0.0461 | 827
308.2 K, 7660 kPa, x1 = 0.0683 | 864
308.2 K, 7700 kPa, x1 = 0.0245 | 738
308.2 K, 7700 kPa, x1 = 0.0989 | 916
308.2 K, 7750 kPa, x1 = 0.0461 | 830
308.2 K, 7770 kPa, x1 = 0.0245 | 743
308.2 K, 7780 kPa, x1 = 0.0683 | 867
308.2 K, 7830 kPa, x1 = 0.0245 | 747
308.2 K, 7850 kPa, x1 = 0.0461 | 833
308.2 K, 7920 kPa, x1 = 0.0245 | 752
308.2 K, 7950 kPa, x1 = 0.0461 | 836
308.2 K, 8010 kPa, x1 = 0.0245 | 757
308.2 K, 8060 kPa, x1 = 0.0461 | 839
308.2 K, 8090 kPa, x1 = 0.0245 | 762
308.2 K, 8120 kPa, x1 = 0.0989 | 924
308.2 K, 8190 kPa, x1 = 0.0461 | 843
308.2 K, 8190 kPa, x1 = 0.1495 | 1026
308.2 K, 8200 kPa, x1 = 0.0245 | 767
308.2 K, 8300 kPa, x1 = 0.0245 | 772
308.2 K, 8420 kPa, x1 = 0.0245 | 777
308.2 K, 8610 kPa, x1 = 0.0989 | 930
308.2 K, 8620 kPa, x1 = 0.0245 | 785
308.2 K, 8840 kPa, x1 = 0.0245 | 793
308.2 K, 9040 kPa, x1 = 0.1495 | 1033
308.2 K, 9100 kPa, x1 = 0.0245 | 801
308.2 K, 9190 kPa, x1 = 0.0989 | 938
308.2 K, 9370 kPa, x1 = 0.0245 | 809
308.2 K, 9680 kPa, x1 = 0.0245 | 818
308.2 K, 9820 kPa, x1 = 0.0989 | 944
308.2 K, 9960 kPa, x1 = 0.1495 | 1041
308.2 K, 10040 kPa, x1 = 0.0245 | 827
308.2 K, 10130 kPa, x1 = 0.0989 | 948
308.2 K, 10420 kPa, x1 = 0.0245 | 835
308.2 K, 10860 kPa, x1 = 0.0245 | 844
308.2 K, 10920 kPa, x1 = 0.1495 | 1048
308.2 K, 11350 kPa, x1 = 0.0245 | 853
308.2 K, 11370 kPa, x1 = 0.1495 | 1051
308.2 K, 11880 kPa, x1 = 0.0245 | 863
308.2 K, 11910 kPa, x1 = 0.1495 | 1055
308.2 K, 12480 kPa, x1 = 0.0245 | 873
308.2 K, 12510 kPa, x1 = 0.1495 | 1060
308.2 K, 13080 kPa, x1 = 0.1495 | 1063
308.2 K, 13130 kPa, x1 = 0.0245 | 882
308.2 K, 13590 kPa, x1 = 0.0245 | 889
308.2 K, 13640 kPa, x1 = 0.1495 | 1067
308.2 K, 14140 kPa, x1 = 0.0245 | 896
308.2 K, 14210 kPa, x1 = 0.1495 | 1071
308.2 K, 14290 kPa, x1 = 0.0245 | 899
308.2 K, 14850 kPa, x1 = 0.1495 | 1075
308.2 K, 15150 kPa, x1 = 0.1495 | 1077
313.1 K, 6900 kPa, x1 = 0.1495 | 986
313.1 K, 7230 kPa, x1 = 0.0989 | 875
313.1 K, 7250 kPa, x1 = 0.1495 | 991
313.1 K, 7480 kPa, x1 = 0.0683 | 811
313.1 K, 7510 kPa, x1 = 0.1495 | 994
313.1 K, 7520 kPa, x1 = 0.0989 | 881
313.1 K, 7590 kPa, x1 = 0.0683 | 814
313.1 K, 7670 kPa, x1 = 0.0683 | 817
313.1 K, 7680 kPa, x1 = 0.0461 | 756
313.1 K, 7730 kPa, x1 = 0.0461 | 758
313.1 K, 7760 kPa, x1 = 0.0683 | 820
313.1 K, 7770 kPa, x1 = 0.1495 | 997
313.1 K, 7820 kPa, x1 = 0.0461 | 764
313.1 K, 7830 kPa, x1 = 0.0989 | 882
313.1 K, 7860 kPa, x1 = 0.0683 | 823

— the NIST ThermoML archive (doi:10.1021/je900387e)
